Data published in patent US4130650A, “Antiarrhythmic method of use” (priority 1976, dated 1978).
Converted amounts (≈) assume the structure as drawn. Counter-ions that a name gives are not always drawn.

Key:
[1] = tested on: adrenalin-induced ventricular arrhythmia in dogs; assay: Prevention of ventricular arrhythmia provoked by adrenalin in dogs under halothane anesthesia; format: in vivo, dog; details: Canis lupus familiaris, iv, 5 min, i.v., 4 dogs, adrenalin 5 minutes after compound, read-out: mean dose that abolished the adrenalin arrhythmias
Experimental: (§1) 2. prevention of ventricular arrhythmia provoked by adrenalin in dogs under halothane anesthesia
(§2) According to the method described by ALLEN, et al in Brit. J. Pharmacol. 45, 561 (1972), dogs were anesthetized by subcutaneous injection of 0.5 mgm/kg morphine sulfate and by intravenous injection of 20 mg/kg pentobarbitone. The animals were given artificial respiration with room air from a Starling pump via a cuffed endotracheal tube. The electrocardiogram (lead II) was recorded on a Devices recorder (Type M 8 or M 4). The test compound was injected through a polyethylene catheter inserted into a foreleg vein.
(§3) Observations were made on 4 dogs. The artificial respiration was continued adding 1% halothane to the room air. 15 minutes later adrenalin was injected at doses of 0.2 and increased to 0.4, 0.8, 1.2, 1.6, 2.0, 2.4 and 2.8 […], at intervals of 7 to 10 minutes between each dose, until ventricular tachycardia had been produced. After the arrhythmia-producing dose of adrenalin had been established, compound A was injected intravenously. 5 minutes later the adrenalin injection was repeated, using the same dose. The dose of the test compound was increased to obtain the minimum dose which prevented the adrenalin-induced arrhythmia.

in vivo = format: in vivo, dog; details: dog, in vivo, iv
Experimental: as §1, §2, §3
(§4) 3. Suppression of ouabain-induced ventricular arrhythmia in dogs
(§5) According to the method described by ALLEN, et al. (supra), dogs were anesthetized by subcutaneous injection of morphine sulfate (0.5 mgm/kg), followed by intravenous injection of pentobarbitone (20 mgm/kg). The animals were given artificial respiration with room air from a Starling pump via a cuffed endotracheal tube. The electrocardiogram (lead II) was recorded on a Devices recorder (Type M8 or M 4). Test compound administration was through a polyethylene catheter inserted in a foreleg vein.
(§6) Observations were made on 12 dogs. Ventricular tachycardia was produced by intravenous injection of ouabain, first 40 mgm/kg, followed after 30 minutes by 20 mgm/kg and by 10 mgm/kg every 15 minutes until ventricular tachycardia was established. 10 minutes after the last ouabain injection, the test compound was continuously infused intravenously from a motor-driven syringe at a rate of 0.2 mgm/kg per minute, until sinus rhythm returned. The mean dose of ouabain to produce ventricular tachycardia was 60 ± 2.8 mg/kg. The mean dose of compound A required to convert the ventricular tachycardia to sinus rhythm was 0.76 ± 0.18 mg/kg i.v.
(§7) The lowest therapeutic dose was 0.1 mgm/kg i.v., which is about 100 to 200 times smaller than the mean toxic dose.

anesthetized dogs = assay: animal or person; format: in vivo, dog
Experimental: as §1, §2, §3, §4, §5, §6, §7

[2] = tested on: isolated auricles of guinea pigs; assay: Reduction of the maximum driving frequency (MDF) of isolated auricles of guinea pigs; format: cell-based, guinea pig; details: Cavia porcellus; isolated left auricles; tyrode solution, 37° C., pH 7.4; cumulative addition; MDF 5 and 10 minutes after adding; read-out: EC50: concentration causing a 50% decrease of the maximum driving frequency (MDF)
Experimental: 1. reduction of the maximum driving frequency of isolated auricles of guinea pigs The tests were carried out using an adaption of the method of DAWES (Brit. J. Pharmacol.1, 90, 1946). Guinea pigs of both sexes, body weight between 300 and 400 gm were killed by a blow on the neck. The left auricles were quickly removed and put into an organ bath of 100 ml. The organ bath was filled with tyrode solution, which was infused with a mixture of 98% of oxygen and 2% of carbon dioxide. […] The auricles were stimulated with square wave impulses of 1 millisecond duration at a voltage 200% higher than the threshold voltage and a frequency of 1 Hz (Hugo Sachs, Stimulator II). A weight of 0.4 gm was applied to the auricles and the contractions were continuously measured isometrically by means of a force displacement transducer (Grass Ft 03) and recorded on a Grass polygraph (model 5). After sufficient equilibration time (15 min.) the stimulation rate was increased every 10 seconds by 1 Hz until the maximum driving frequency (MDF) was reached. The MDF is defined as the stimulation frequency, where every stimulation is still answered by a contraction. The MDF was determined before and 5 and 10 minutes after adding the test compound. The test compound was added cumulatively to the organ bath. The concentration causing a 50% decrease of the MDF (EC50) was calculated from a dose-response curve.

[3] = Acute i.v. toxicity in mice; details: mouse, in vivo, iv, tail vein, LITCHFIELD and WILCOXON, read-out: median lethal dose (LD50)
Experimental: 4. Acute i.v. toxicity in mice
Mice of both sexes having a body weight of 20 to 25 gm were used. The test compound was dissolved in distilled water and injected into the mice with a volume of 0.1 ml/10 gm body weight by way of a tail vein. Each dose was injected into 10 mice. The number of dead animals was determined and the median lethal dose (LD50) was calculated using the method of LITCHFIELD and WILCOXON [J. Pharmac. Exp. Ther. 96, 99 (1949)].

[4] = tested on: ouabain-induced ventricular arrhythmia in dogs; assay: Suppression of ouabain-induced ventricular arrhythmia in dogs; format: in vivo, dog; details: 12 dogs
Experimental: as §4, §5, §6

SMILES	EC50 [2] [µg/mL]	also measured
CN(C)CCOc1ccccc1C=Cc1ccccn1.Cl [A, 2-[o-(β-Dimethylamino-ethoxy)-styryl]-pyridine monohydrochloride]	3.8	minimal effective dose [1]: 0.18 ± 0.04 mg/kg; selectivity ratio (in vivo): 100 to 200; minimal effective dose (anesthetized dogs; Canis lupus familiaris, iv, read-out: lowest therapeutic dose): 0.1 mg/kg; antiarrhythmic effectiveness (in words) (anesthetized dogs; anesthetized dogs): very effective antiarrhythmic compound; therapeutic ratio (in words) (anesthetized dogs; dog, in vivo, iv): excellent therapeutic ratio; LD50 [3]: 25 mg/kg; minimal effective dose ([4]; Canis lupus familiaris, iv, i.v. infusion 0.2 mgm/kg per minute, ouabain-induced tachycardia, read-out: mean dose required to convert the ventricular tachycardia to sinus rhythm): 0.76 ± 0.18 mg/kg
CNCCOc1ccccc1C=Cc1ccccn1 [B, 2-[0-(β-Methylamino-ethoxy)-styryl]-pyridine dihydrochloride]	8.3	–
C(=Cc1ccccc1OCCN1CCOCC1)c1ccccn1 [C, 2-[0-(β-Morpholino-ethoxy)-styryl]-pyridine dihydrochloride]	33	–
CN(C)CCOc1ccccc1C=Cc1cnccn1 [H, 2-[o-(β-Dimethylamino-ethoxy)-styryl] -pyrazine]	25 (≈ 92.8 µM)	–
C[C@@H]1O[C@@H](O[C@H]2C[C@@H](O)[C@]3(CO)[C@H]4[C@H](O)C[C@]5(C)[C@@H](C6=CC(=O)OC6)CC[C@]5(O)[C@@H]4CC[C@]3(O)C2)[C@H](O)[C@H](O)[C@H]1O [ouabain, reference compound]	–	mean dose of ouabain to produce ventricular tachycardia ([4]; intravenous): 60 ± 2.8 mg/kg

Second part, led by results:

EC50 [2] [µg/mL]	SMILES	also measured
6.3	Cc1cccc(C=Cc2ccccc2OCCN(C)C)n1.Cl [Compound E, 2-[o-(β-Dimethylamino-ethoxy)-styryl]-6-methyl-pyridine hydrochloride]	–
3.1	CC(=Cc1ccccc1OCCN(C)C)c1ccccn1 [D, 1-[o-(β-Dimethylamino-ethoxy)-phenyl]-2-(pyridyl-2)-propene-1 monohydrochloride]	–
10	CN(C)CCOc1ccccc1C=Cc1ccc2ccccc2n1.Cl [F, 2-[o-(β-Dimethylamino-ethoxy)-styryl]-quinoline hydrochloride]	–
9	CN(C)CCOc1ccccc1C=Cc1nc2ccccc2n1C.Cl.Cl [G, 2-[o-(β-Dimethylamino-ethoxy)-styryl]-1-methyl-benzimidazole dihydrochloride]	–
10	CN(C)CCOc1ccccc1C=Cc1ccccc1.Cl [I, 2-(2-Dimethylamino-ethoxy)-stilbene hydrochloride]	–
